Laboratory results from patent EP4650362A1, “NEUROPROTECTIVE PSD-95 POLYPEPTIDE INHIBITOR AND USE THEREOF” (Beijing Tuo Jie Biopharmaceutical Co. Ltd., priority 2023, dated 2024).
Read-outs that look alike come from different tables or passages of the source. Non-standard residues stand in square brackets, D forms with d. Residues, ends and D or L forms follow the SMILES beside them. Chg = N[C@H](C(=O)O)C1CCCCC1; Tle = CC(C)(C)[C@H](N)C(=O)O; Dab = NCC[C@H](N)C(=O)O; Aib = CC(C)(N)C(=O)O

Columns and labels:
human PSD95-PDZ3 = molecular target: T1, human PSD95-PDZ3 (Homo sapiens, UniProt P78352); experiment: binding ELISA with Biotin-PDZ3; conditions: plate coated with 2 µM test compound, Biotin-PDZ3 titrated; read-out: EC50 (PDZ3)
T1 construct: PDZ3 (309-401, Flag-His-Avitag-TEVsite tag); made in house
T1 sequence (P78352 309-401): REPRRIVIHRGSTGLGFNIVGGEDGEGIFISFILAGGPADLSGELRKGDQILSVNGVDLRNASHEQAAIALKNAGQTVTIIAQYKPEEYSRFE
Source text: The three PDZ domains in the PSD95 protein are structurally similar. Binding to the PDZ1 and PDZ2 domains can effectively block PSD95-mediated neuroexcitotoxicity. However, the biological function of binding to the PDZ3 domain is unclear. Therefore, to avoid potential safety concerns, this test example assessed the selectivity of polypeptide compounds for the PDZ2 and PDZ3 domains, aiming to identify polypeptide compounds that specifically bind to the PDZ2 domain. The expression and purification of PSD95-PDZ3 protein were carried out with reference to the steps in 3.1.2. The amino acid sequence of PDZ3 protein: […] Site-specifically biotinylated Biotin-PDZ2 and Biotin-PDZ3 proteins were used for binding ELISA assays. […] After the blocking was complete, the blocking solution was discarded, and the plate was washed three times with PBST buffer. […] After the incubation was complete, the reaction solutions in the microplate were discarded, and the plate was washed three times with PBST. 100 μL of HRP-SA secondary antibody (diluted at 1:2000) was added to each well, and the plate was incubated at 37 °C for 1 h. After the plate was washed three times with PBST, 100 μL of TMB chromogenic substrate was added. […] The absorbance at 450 nm was measured using a SpectraMax M5 microplate reader, and the binding EC50 values of the test compounds to Biotin-PDZ2 or Biotin-PDZ3 were calculated using GraphPad Prism 9. […] The abilities of polypeptide compounds to bind to human PSD95-PDZ2 and human PSD95-PDZ3

[1] = pharmacokinetic study in rats, single intravenous bolus injection; format: in vivo, SD rats; conditions: rats, intravenous bolus injection over 10 min, 3 nmol/g, n = 3
Description: With male SD rats as test animals, the pharmacokinetic behavior of polypeptide compounds administered via single intravenous bolus injection in rats (plasma) was studied.
Male SD rats weighing 170 to 200 grams and aged 4-6 weeks were purchased from Beijing Vital River Laboratory Animal Technology Co., Ltd. The polypeptide compounds were dissolved in 1× PBS, and the polypeptide compound solutions were then administered via intravenous bolus injection over 10 min at a dose of 3 nmol/g, with three animals per group. At each of the time points of 2 min, 8 min, 15 min, 30 min, 45 min, 60 min, and 120 min after the end of bolus injection, 0.2 mL of blood was collected and transferred to an EDTA-K2 anticoagulation centrifuge tube. The whole blood sample was centrifuged at 4 °C at 4000 g for 5 min, and a plasma sample was obtained by separation and cryopreserved at -80 °C.
The pharmacokinetic parameters of polypeptide compound 22, administered via intravenous bolus injection, in rats were determined using a similar method, with the difference being that an enzyme inhibitor was added immediately after blood collection.
The plasma concentrations of the test compounds were determined using the method in Test Example 3.4.3. Plasma concentration-time curves were plotted, and the pharmacokinetic parameters were calculated using PKSolver software. The experimental results are shown in Table 5-1, Table 5-2, and FIG. 3.

human PSD95-PDZ2 [2] = molecular target: T2, human PSD95-PDZ2 (Homo sapiens, UniProt P78352); experiment: competitive ELISA, affinity for human PSD95-PDZ2; format: binding; conditions: for IC50: competitive ELISA against 0.3 µM Biotin-NA-1, error of this test within three times, read-out: IC50; for rIC50: ratio of the affinity of the polypeptide compound to the affinity of NA-1
T2 construct: PDZ2 (155-249, the Flag-His-Avitag-TEVsite tag is italicized); made in house; host or cells: E. coli BL21-DE3 (PET vector)
Source text: The objective of this test example was to determine the affinities of polypeptide compounds for human PSD95-PDZ2 using competitive ELISAs.
The amino acid sequence of PDZ2 protein was designed using human PSD95 (Uniprot Entry: P78352) as a template for PDZ: PDZ2 (155-249, the Flag-His-Avitag-TEVsite tag is italicized and was subsequently used for purification and biotinylation): […]
[…] (SEQ ID NO. 62). The PDZ2 gene was constructed onto a PET expression vector, and induced expression was performed using BL21-DE3 E. coli cells under conditions of 37 °C and 1 mM IPTG 4 h. Then centrifugation was performed at 10,000 g at 4 °C for 10 min, and the cell pellets were collected, resuspended in 1× PBS solution, and then lysed using a homogenizer. The lysate was centrifuged at high speed, and the supernatant was collected and filtered through a 0.45 µm membrane. A Ni-Sepharose affinity column was equilibrated with 5 column volumes of a 20 mM phosphate buffer (pH 8.0). The sample was centrifuged at high speed to remove impurities and loaded onto the column for binding. The column was rinsed with the 20 mM phosphate buffer until the A280 reading dropped to the baseline. Gradient elution was then performed with the 20 mM phosphate buffer and 0-500 mM imidazole. A protein was collected, and whether it was the target protein was determined. The purified sample described above was buffer-exchanged into 1× PBS solution, and the resulting solution was concentrated to a volume of 2 mL and further purified using a Superdex200 gel chromatography column (GE) equilibrated with 1× PBS. The target peak was collected and aliquoted for later use.
PSD95-PDZ2 (the tag was removed by TEV enzyme) was diluted with 1× PBS buffer to 1 µg/mL, added to a 96-well microplate (Corning, 9018, 25/box 96-well clear flat bottom plate) at 100 µL/well, and left to stand overnight at 4 °C for 16-20 h. After the liquid was discarded, the plate was washed three times with PBST (pH 7.4, 0.05% Tween-20) buffer, and a 4% BSA blocking solution diluted with PBST buffer was then added (300 µL/well). The plate was blocked by incubation in an incubator at 37 °C for 1 h. After the blocking was complete, the blocking solution was discarded, and the plate was washed three times with PBST buffer. Biotin-NA-1, at a constant concentration of 0.3 µM, and the test compounds, having a starting concentration of 100 µM and serially diluted ten-fold with PBS buffer to seven concentrations (100, 10, 1, 0.1, 0.01, 0.001, 0.0001, and 0 µM), were then added, and the plate was incubated in an incubator at 37 °C for 1 h. After the incubation was complete, the reaction solutions in the microplate were discarded, and the plate was washed three times with PBST. 100 µL of HRP-SA secondary antibody (diluted at 1:2000) was added to each well, and the plate was incubated at 37 °C for 1 h. After the plate was washed three times with PBST, 100 µL of TMB chromogenic substrate was added. The plate was incubated at room temperature for 1-3 min, and 100 µL of 1 M sulfuric acid was added to stop the reaction.
The absorbance at 450 nm was measured using a SpectraMax M5 microplate reader, and non-linear fitting was performed using GraphPad Prism 9 to calculate the binding IC50 values of the test compounds to PSD95-PDZ2 protein.

human PSD95-PDZ2 [3] = molecular target: T2, human PSD95-PDZ2; experiment: binding ELISA with Biotin-PDZ2; conditions: for EC50: plate coated with 2 µM test compound, Biotin-PDZ2 titrated, read-out: EC50 (PDZ2); for Specificity for PDZ2 (PDZ3/PDZ2): ratio PDZ3/PDZ2
Source text: The three PDZ domains in the PSD95 protein are structurally similar. Binding to the PDZ1 and PDZ2 domains can effectively block PSD95-mediated neuroexcitotoxicity. However, the biological function of binding to the PDZ3 domain is unclear. Therefore, to avoid potential safety concerns, this test example assessed the selectivity of polypeptide compounds for the PDZ2 and PDZ3 domains, aiming to identify polypeptide compounds that specifically bind to the PDZ2 domain. Site-specifically biotinylated Biotin-PDZ2 and Biotin-PDZ3 proteins were used for binding ELISA assays. […] After the blocking was complete, the blocking solution was discarded, and the plate was washed three times with PBST buffer. […] After the incubation was complete, the reaction solutions in the microplate were discarded, and the plate was washed three times with PBST. 100 µL of HRP-SA secondary antibody (diluted at 1:2000) was added to each well, and the plate was incubated at 37 °C for 1 h. After the plate was washed three times with PBST, 100 µL of TMB chromogenic substrate was added. […] The absorbance at 450 nm was measured using a SpectraMax M5 microplate reader, and the binding EC50 values of the test compounds to Biotin-PDZ2 or Biotin-PDZ3 were calculated using GraphPad Prism 9. […] The abilities of polypeptide compounds to bind to human PSD95-PDZ2 and human PSD95-PDZ3
Target sequence in this assay (P78352 155-249): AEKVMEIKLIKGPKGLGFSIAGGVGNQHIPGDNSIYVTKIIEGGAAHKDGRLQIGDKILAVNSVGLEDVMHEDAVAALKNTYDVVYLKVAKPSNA

Row | Structure (SMILES) | EC50 (human PSD95-PDZ3) | AUC(0-inf) ([1]; male, SD, rat, plasma) | MRT ([1]; male, SD, rat, plasma) | AUC(0-t) ([1]; male, SD, rat, plasma, read-out: AUC(0-t)) | Cmax ([1]; male, SD, rat, plasma, read-out: Cmax) | half-life ([1]; male, SD, rat, plasma, read-out: T1/2 (converted)) | AUClast/dose [1] | IC50 (human PSD95-PDZ2 [2]) | EC50 (human PSD95-PDZ2 [3]) | rIC50 (human PSD95-PDZ2 [2]) | Specificity for PDZ2 (PDZ3/PDZ2) (human PSD95-PDZ2 [3]) | AUC(0-t) [1] | AUC(inf) [1] | Cmax [1] | MRTO-inf [1] | T1/2 [1] | selectivity for the PSD95-PDZ2 domain (human PSD95-PDZ2 [3]; PDZ2 versus PDZ3, conclusion in words)
1 | CC(C)[C@H](NC(=O)[C@H](CC(=O)O)NC(=O)[C@H](CO)NC(=O)[C@@H](NC(=O)[C@@H](NC(=O)[C@@H](NC(=O)[C@H](CCN)NC(=O)C(C)(C)NC(=O)CNC(=O)[C@@H](CCCNC(=N)N)NC(=O)[C@@H](CCCNC(=N)N)NC(=O)[C@@H](CCCNC(=N)N)NC(=O)[C@@H](CCC(N)=O)NC(=O)[C@@H](CCCNC(=N)N)NC(=O)[C@@H](CCCNC(=N)N)NC(=O)[C@@H](CCCCN)NC(=O)[C@@H](CCCCN)NC(=O)[C@@H](CCCNC(=N)N)NC(=O)CNC(=O)[C@H](N)Cc1ccc(O)cc1)[C@@H](C)O)C1CCCCC1)C(C)(C)C)C(=O)O [Polypeptide compound 19, y-G-r-k-k-r-r-q-r-r-r-G-Aib-Dab-T-Chg-Tle-S-D-V] (H-[dY]G[dR][dK][dK][dR][dR][dQ][dR][dR][dR]G[Aib][Dab]T[Chg][Tle]SDV-OH) | > 1000 µM | 11.8 µg·h/mL | 57.6 min | 10.2 µg·h/mL | 19.6 µg/mL | 43.8 min | 1345 | 0.612 µM | 0.029 µM | – | – | – | – | – | – | – | –
2 | CC(C)[C@H](NC(=O)[C@H](CC(=O)O)NC(=O)[C@@H](NC(=O)[C@@H](NC(=O)[C@@H](NC(=O)[C@@H](NC(=O)CNC(=O)[C@@H](CCCNC(=N)N)NC(=O)[C@@H](CCCNC(=N)N)NC(=O)[C@@H](CCCNC(=N)N)NC(=O)[C@@H](CCC(N)=O)NC(=O)[C@@H](CCCNC(=N)N)NC(=O)[C@@H](CCCNC(=N)N)NC(=O)[C@@H](CCCCN)NC(=O)[C@@H](CCCCN)NC(=O)[C@@H](CCCNC(=N)N)NC(=O)CNC(=O)[C@H](N)Cc1ccc(O)cc1)[C@@H](C)O)C(C)(C)C)C(C)(C)C)[C@@H](C)O)C(=O)O [Polypeptide compound 20, y-G-r-k-k-r-r-q-r-r-r-G-T-Tle-Tle-T-D-V] (H-[dY]G[dR][dK][dK][dR][dR][dQ][dR][dR][dR]GT[Tle][Tle]TDV-OH) | 3.23 µM | – | – | – | – | – | – | 0.763 µM | 0.015 µM | 0.84 | 215 | – | – | – | – | – | –
3 | CC(C)[C@H](NC(=O)[C@H](CC(=O)O)NC(=O)[C@H](CO)NC(=O)[C@@H](NC(=O)[C@@H](NC(=O)[C@@H](NC(=O)CNC(=O)[C@@H](CCCNC(=N)N)NC(=O)[C@@H](CCCNC(=N)N)NC(=O)[C@@H](CCCNC(=N)N)NC(=O)[C@@H](CCC(N)=O)NC(=O)[C@@H](CCCNC(=N)N)NC(=O)[C@@H](CCCNC(=N)N)NC(=O)[C@@H](CCCCN)NC(=O)[C@@H](CCCCN)NC(=O)[C@@H](CCCNC(=N)N)NC(=O)CNC(=O)[C@H](N)Cc1ccc(O)cc1)[C@@H](C)O)C1CCCCC1)C(C)(C)C)C(=O)O [Polypeptide compound 21, y-G-r-k-k-r-r-q-r-r-r-G-T-Chg-Tle-S-D-V] (H-[dY]G[dR][dK][dK][dR][dR][dQ][dR][dR][dR]GT[Chg][Tle]SDV-OH) | > 1000 µM | – | – | – | – | – | 745 | 0.8 µM | 0.018 µM | 0.88 | >10000 | 5.66 µg·h/mL | 6.396 µg·h/mL | 15.643 µg/mL | 48 min | 43.2 min | comparable to that of the positive drugs NA-1 and NoNO42
